Measurements from paper PMC2695949, “Synthesis and Evaluation of Novel Organogermanium Sesquioxides As Antitumor Agents” (Bioinorganic Chemistry and Applications, 2009).

Columns and labels:
[1] = tested on: KB (human nasopharyngeal cancer) cells; assay: MTT antitumor activity in vitro, KB cells; format: cell-based; conditions: 50 μg/mL, DMSO as solvent
Method: (§1) The antitumor activity in vitro was assayed by the MTT method using DMSO as solvent. The tumor inhibition yield and IC50 of the five organogermanium sesquioxides and Ge-132 against KB (human nasopharyngeal cancer), HCT (human colonic cancer), and Bel (human liver cancer) cells were measured.

KB, HCT, and Bel cells = assay: MTT antitumor activity in vitro, cell line not singled out; format: cell-based, human; conditions: bioassay at 1, 10, and 50 μg/mL
Method: (§2) The antitumor activity in vitro was assayed by the MTT method using DMSO as solvent.

[2] = tested on: Bel (human liver cancer) cells; assay: MTT antitumor activity in vitro, Bel cells; format: cell-based; conditions: 50 μg/mL, DMSO as solvent
Method: as §2

[3] = tested on: HCT (human colonic cancer) cells; assay: MTT antitumor activity in vitro, HCT cells; format: cell-based; conditions: 50 μg/mL, DMSO as solvent
Method: as §1

[4] = Solubility of the powders; format: physicochemical; conditions: 2 mol/L of NaOH solution
[5] = Biodistribution in nude mice bearing human colonic cancer xenografts; format: in vivo, Balb/c nude mice; conditions: for Biodistribution, uptake: Tumor; for Biodistribution, uptake / T/NT (ratio of ID %/g of tumor over normal tissue): n = 3; for T/NT (ratio of ID %/g of tumor over normal tissue): 20 h
Method: Experimental animals (Balb/c nude mice) were provided by Experimental Animal Department of Chinese Academy of Medical Sciences. The nude mice were implanted with human colonic carcinoma cells (LoVo cells). When the tumor size was about 1 cm, the mice were used for the experiment.
Twelve nude mice bearing human colonic cancer xenografts were injected in tail vein with 555~740 kBq of ^99mTc labeled compound 5. Three animals were sacrified at 1-hour, 3-hour, 6-hour, and 20-hour postinjection, respectively. Tissues and organs were excised, rinsed, weighted, and counted in a γ counter. The uptake percentage of the injected dose per gram of the measured organ (ID %/g) and the ratio of ID %/g of tumor over normal tissues (T/NT) were calculated.

| Biodistribution, uptake ([5]; 1 h postinjection) | Biodistribution, uptake ([5]; 3 h postinjection) | Biodistribution, uptake ([5]; 6 h postinjection) | Biodistribution, uptake ([5]; 20 h postinjection) | clearance in tumor ([5]; nude mice, tail vein injection) | T/NT (ratio of ID %/g of tumor over normal tissue) ([5]; tumor versus Blood) | T/NT (ratio of ID %/g of tumor over normal tissue) ([5]; tumor versus Brain) | T/NT (ratio of ID %/g of tumor over normal tissue) ([5]; tumor versus Muscle) | Compound | Inhibition yield [1] | antitumor activity against cancer cells (in words) (KB, HCT, and Bel cells) | Inhibition yield [2] | Inhibition yield [3] | solubility [4] |
| --- | --- | --- | --- | --- | --- | --- | --- | --- | --- | --- | --- | --- | --- |
|  |  |  |  |  |  |  |  | O=C1OC(=O)C2C3OC(C[CH]3[Ge](=[O])[O][Ge](=[O])[CH]3CC4OC3C3C(=O)OC(=O)C43)C12 (centres unmarked) [Compound 1] | 0% | no antitumor activity | 0% | 0% |  |
|  |  |  |  |  |  |  |  | O=C1NC(=O)C2C3OC(C[CH]3[Ge](=[O])[O][Ge](=[O])[CH]3CC4OC3C3C(=O)NC(=O)C43)C12 (centres unmarked) [Compound 2] | 0% | no antitumor activity | 0% | 0% |  |
|  |  |  |  |  |  |  |  | NN1C(=O)C2C3C[CH]([Ge](=[O])[O][Ge](=[O])[CH]4CC5OC4C4C(=O)N(N)C(=O)C54)C(O3)C2C1=O (centres unmarked) [Compound 3] | 0% | no antitumor activity | 0% | 0% | easily soluble |
|  |  |  |  |  |  |  |  | CCOC(=O)CCC(NC(=O)C[CH2][Ge](=[O])[O][Ge](=[O])[CH2]CC(=O)NC(CCC(=O)OCC)C(=O)OCC)C(=O)OCC (centres unmarked) [Compound 4, Germanium Sesquioxide of Ethyl Glutamate] | 0% | certain activities |  | 41.5% |  |
| 0.73 % ID/g | 0.97 % ID/g | 0.87 % ID/g | 0.62 % ID/g | relatively low | 3.01 | 18.30 | 5.81 | NC(=S)NCC[CH2][Ge](=[O])[O][Ge](=[O])[CH2]CCNC(N)=S [Compound 5, γ-thiocarbamido propyl germanium sesquioxide] | 92.9% | certain activities | 70.9% | 84.9% | easily soluble |
|  |  |  |  |  |  |  |  | O=C(O)C[CH2][Ge](=[O])[O][Ge](=[O])[CH2]CC(=O)O [Ge-132, carboxyethylgermanium sesquioxide, reference compound] | 0% |  | 0% | 31.4% |  |
